Data set [1] can be described thus: critical micelle concentration in PBS by molar absorptivity at 409 nm. As to conditions: PBS (pH 7.4), 37° C. It is filed as physicochemical. The source says:
In its monomeric state, Amphotericin B has a characteristic absorption band at 409 nm; upon aggregation, however, its apparent molar absorptivity decreases in magnitude [see Biochemistry 30:5707 (1991)]. Thus, by measuring its molar absorptivity as a function of the reciprocal of the macrolide concentration, one can estimate the critical micelle concentration. This can be shown mathematically by allowing T, m and P to represent the total, monomeric, and micellar concentrations (i.e. the concentration of the drug that is present in micellar form) of the macrolide, respectively, and if ε represents the apparent molar absorptivity and εm and εp are the molar absorptivity for the monomeric and micellar components, respectively, then it can be shown that ε=εp +(εm -εp)m/T. At concentrations in excess of the critical micelle concentration, m is a constant and ε is inversely proportional to T.
Using the method described previously, the critical micelle concentrations for Amphotericin B and the conjugates described in the preceding examples were determined and are reported in Table I describing the aggregation, antifungal and hemolytic properties of […] macrolide antibiotics (in μM amounts) according to the present invention.
^a critical micelle concentration was determined in PBS (pH 7.4) at […]

Data set [2] has as its system Cryptococcus neoformans. Description: minimum inhibitory concentration, Cryptococcus neoformans, broth microdilution. It is filed as cell-based. As to conditions: 24 h. Here is the method: (§1) Microorganism inocula was harvested from one to five day old cultures grown on Sabourand's dextrose agar. After two washes with sterile saline, the inocula were counted utilizing a hemacytometer and diluted or concentrated as required to 1×10^4 blastospores per ml. Sterile molten agar (at 50° C.) was inoculated, allowed to cool, and 10 mm diameter discs impregnated (from […] stock solutions) with each of the test compounds was placed on the surface of the agar. Zones of inhibition were measured after incubating the plates at 30° C. for 24-48 hours.
(§2) The compounds were then screened against three strains of three species of microorganisms: Candida albicans, Cryptococcus neoformans, and Aspergillus fumigatus using a conventional double dilution technique. All tests reported in Table II were done by broth microdilution in yeast nitrogen base-glucose using an inoculum of 1×10^4 blastospores per ml; the cultures were incubated at 37° C. for 24 hours, and the minimum concentration (in μg/ml) that prevents visible growth was recorded as the minimum inhibitory concentration.
For orientation: Dilution methods test growth across graded concentrations, often in twofold steps.

In data set [3] the test system is Candida albicans. In words: K+ release from fungal cells. Format: cell-based. As to conditions: 3×10^7 fungal cells/ml, read-out: concentration for releasing 50% of the K+ from fungal cells.
The nature of data set [4]: solubility in water. Format: physicochemical.
Data set [5] has as its system Aspergillus fumigatus. Description: minimum inhibitory concentration, Aspergillus fumigatus, broth microdilution. Format: cell-based. As to conditions: 24 h, 37° C. Here is the method:
as §1, §2

The subject of data set [6] is Candida albicans. Description: minimum inhibitory concentration, Candida albicans, broth microdilution. Format: cell-based. The conditions noted are these: 24 h, 37° C. Here is the method:
^c minimum inhibitory concentration (see Example IV); three different
strains of Candida albicans were tested; all tests were done in broth
microdilution in yeast nitrogen baseglucose at 37° C. for 24 hours
the initial inoculum was 1 × 10^4 blastospores per ml
The minimum inhibitory concentration reported in Table I was obtained, and further confirmed as reported in Table II, by the methods described in the following Example IV.
as §1, §2

The nature of data set [7]: in vitro. As to conditions: human, red blood cells.
Data set [8] concerns Candida albicans (isolate NIH A). Description: survival of mice infected with Candida albicans (Example V). The conditions noted are these: i.p. once per day for ten days, Example II 30 mg/kg, Amphotericin B 1 mg/kg. Format: in vivo, Candida albicans in ICR mice. The source says: Ten immunocompetent ICR mice weighing 30 g each in three groups were inoculated intravenously with 3.2×10^6 colony forming units of Candida albicans (isolate NIH A) per mouse.

The conditions of data set [9]: in solution; literature; cited from earlier work.
The subject of data set [10] is Histoplasma capsulatum, Cryptococcus neoformans, and several species of Candida, including C. glabrata and C. albicans. As to conditions: cited from earlier work.
The subject of data set [11] is human red blood cells. In words: hemolysis, 50% release of hemoglobin from human red blood cells. As to conditions: hemoglobin release from human red blood cells.
The subject of data set [12] is mammalian cells. As to conditions: compared with Amphotericin B; cited from earlier work.
In data set [13] the test system is fungal organisms. The conditions noted are these: compared with Amphotericin B; cited from earlier work.
Where [14] appears, read: C. neoformans (1), 37° C., read-out: minimum inhibitory concentration.
[15] abbreviates: C. neoformans (2), 37° C., read-out: minimum inhibitory concentration.
Setting [16] is: read-out: minimum inhibitory concentration, C. neofornams (3), 37° C.
[17] abbreviates: C. albicans (1), read-out: minimum inhibitory concentration.
Where [18] appears, read: C. albicans (2), read-out: minimum inhibitory concentration.
[19] abbreviates: C. albicans (3), read-out: minimum inhibitory concentration.
The mark [20] stands for this setting: three strains of Candida albicans, yeast nitrogen base-glucose, 1 × 10^4 blastospores per ml, read-out: MIC (minimum inhibitory concentration).

Each structure is given as a SMILES string. pEC50: −log10 of the molar value. Converted amounts (≈) assume the structure as drawn. Read-outs that look alike come from different tables or passages of the source.

By solubility is commonly meant the dissolved amount per volume that the medium holds. By HC50 is commonly meant the concentration giving 50% haemolysis. Lower therefore signals stronger haemolysis. As to `COCCNC(=O)[C@H]1[C@@H]2C[C@@H](O[C@@H]3O[C@H](C)[C@@H](O)[C@H](N)[C@@H]3O)/C=C/C=C/C=C/C=C/C=C/C=C/C=C/[C@H](C)[C@@H](O)[C@@H](C)[C@H](C)OC(=O)C[C@H](O)C[C@H](O)CC[C@@H](O)[C@H](O)C[C@H](O)C[C@](O)(C[C@@H]1O)O2` [Example I], in [1], the “cmc (critical micelle concentration)” value is 4.4 µM. The MIC in [2] (setting [14]) was found to be 1.6 µg/mL (≈ 1.63 µM); in data set [2] (setting [15]), 3.2 µg/mL (≈ 3.26 µM); in [2] (setting [16]), 0.8 µg/mL (≈ 0.815 µM); in [5] (A. fumigatus (1)), 3.2 µg/mL (≈ 3.26 µM); in data set [5] (A. fumigatus (2)), 3.2 µg/mL (≈ 3.26 µM); in data set [5] (A. fumigatus (3)), 1.6 µg/mL (≈ 1.63 µM). Besides, the MIC came to 1.6 µg/mL in data set [6] (setting [17]), 1.6 µg/mL in [6] (setting [18]), 1.6 µg/mL in [6] (setting [19]) and 1.6 µM in [6] (setting [20]). Also, the pEC50 in data set [3] is 6.10. The compound further returned a solubility in data set [4] below 10 µg/mL. In [7], this compound displayed an HC50 at 1 h of 7.9 µM.
As for `C[C@@H]1[C@H](O)[C@@H](C)/C=C/C=C/C=C/C=C/C=C/C=C/C=C/[C@H](O[C@@H]2O[C@H](C)[C@@H](O)[C@H](N)[C@@H]2O)C[C@@H]2O[C@](O)(C[C@@H](O)C[C@@H](O)[C@H](O)CC[C@@H](O)C[C@@H](O)CC(=O)O[C@H]1C)C[C@H](O)[C@H]2C(=O)O` [Amphotericin B, reference compound], the “cmc (critical micelle concentration)” value in data set [1] was 1.1 µM. The percent survival was 100% in data set [8] (day 2 post-infection); 100% in data set [8] (day 3 post-infection); 100% in data set [8] (day 4 post-infection); 100% in data set [8] (day 5 post-infection); 100% in data set [8] (day 6 post-infection); 90% in [8] (day 7 post-infection). In addition, the percent survival in data set [8] (day 30 post-infection) is 90%. The MIC was found to be 0.8 µg/mL (≈ 0.866 µM) in [2] (setting [14]); 0.8 µg/mL (≈ 0.866 µM) in [2] (setting [15]); 0.8 µg/mL (≈ 0.866 µM) in data set [2] (setting [16]); 0.8 µg/mL (≈ 0.866 µM) in data set [5] (A. fumigatus (1)); 1.6 µg/mL (≈ 1.73 µM) in data set [5] (A. fumigatus (2)); 0.8 µg/mL (≈ 0.866 µM) in data set [5] (A. fumigatus (3)). Also, the MIC in [6] (setting [17]) was 1.6 µg/mL; in [6] (setting [18]), 1.6 µg/mL; in [6] (setting [19]), 1.6 µg/mL; in data set [6] (setting [20]), 1.7 µM. The “critical micelle concentration” value in data set [9] is “very low critical micelle concentration”. Further, the pEC50 in data set [3] is 7.00. Moreover, in data set [4] (similar to Example I product (<10 μg/ml)), the “solubility in water” value is listed as “low solubility”. In addition, the “sensitivity to Amphotericin B in vitro” value in [10] is 0.03 to 1.0 µg/mL. In addition, the HC50 at 1 h in data set [7] was found to be 1.8 µM. The “concentration needed for hemolysis relative to critical micelle concentration” value in data set [11] is “must be greater than their critical micelle concentration”.
As to `C[C@@H]1[C@H](O)[C@@H](C)/C=C/C=C/CC/C=C/C=C/C=C/C=C/C(O[C@H]2O[C@H](C)[C@@H](O)[C@H](N)[C@@H]2O)CC2O[C@](O)(CC(O)C(O)CCC(O)CC(O)CC(O)CC(=O)O[C@H]1C)CC(O)C2C(=O)O` (stereo partly shown) [Nystatin], the “toxicity toward mammalian cells” value in data set [12] is listed as “may be far less toxic toward mammalian cells”. In data set [13], the “potency against fungal organisms” value is “somewhat lower in potency against fungal organisms as compared with Amphotericin B”.

The values above are taken from US5606038A, “Amphiphilic polyene macrolide antibiotic compounds” (Competitive Technologies, Inc., priority 1995, dated 1997).
